Data published in ChEMBL document CHEMBL5512637, “Development of Membrane-Targeting Fluorescent 2-Phenyl-1H-phenanthro[9,10-d]imidazole-Antimicrobial Peptide Mimic Conjugates against Methicillin-Resistant Staphylococcus aureus” (J Med Chem, 2024).
Activity calls are given as the source filed them. The calls are words filed in the database; no cut-off is given here.

Key:
[1] = test system: Staphylococcus aureus; assay: Antibacterial activity against Staphylococcus aureus ATCC 29213 incubated for 16 to 18 hrs CLSI based by microbroth dilution assay; assay type: functional; conditions: time 16-18 hrs
[2] = test system: Escherichia coli; assay: Antibacterial activity against Escherichia coli ATCC 25922 incubated for 16 to 18 hrs CLSI based by microbroth dilution assay; assay type: functional; conditions: time 16-18 hrs
[3] = test system: Staphylococcus aureus; assay: Antibacterial activity against methicillin-resistant Staphylococcus aureus clinical isolate M-1 incubated for 16 to 18 hrs CLSI based by microbroth dilution assay; assay type: functional; conditions: time 16-18 hrs
[4] = test system: Staphylococcus aureus; assay: Antibacterial activity against methicillin-resistant Staphylococcus aureus clinical isolate M-2 incubated for 16 to 18 hrs CLSI based by microbroth dilution assay; assay type: functional; conditions: time 16-18 hrs
[5] = test system: Staphylococcus aureus; assay: Antibacterial activity against methicillin-resistant Staphylococcus aureus clinical isolate M-3 incubated for 16 to 18 hrs CLSI based by microbroth dilution assay; assay type: functional; conditions: time 16-18 hrs
[6] = test system: Staphylococcus aureus; assay: Antibacterial activity against methicillin-resistant Staphylococcus aureus clinical isolate M-4 incubated for 16 to 18 hrs CLSI based by microbroth dilution assay; assay type: functional; conditions: time 16-18 hrs
[7] = test system: Staphylococcus aureus; assay: Antibacterial activity against methicillin-resistant Staphylococcus aureus clinical isolate M-5 incubated for 16 to 18 hrs CLSI based by microbroth dilution assay; assay type: functional; conditions: time 16-18 hrs
[8] = test system: Staphylococcus aureus; assay: Antibacterial activity against methicillin-resistant Staphylococcus aureus clinical isolate M-6 incubated for 16 to 18 hrs CLSI based by microbroth dilution assay; assay type: functional; conditions: time 16-18 hrs
[9] = test system: Staphylococcus aureus; assay: Antibacterial activity against methicillin-resistant Staphylococcus aureus clinical isolate M-7 incubated for 16 to 18 hrs CLSI based by microbroth dilution assay; assay type: functional; conditions: time 16-18 hrs
[10] = test system: Staphylococcus aureus; assay: Antibacterial activity against methicillin-resistant Staphylococcus aureus clinical isolate M-8 incubated for 16 to 18 hrs CLSI based by microbroth dilution assay; assay type: functional; conditions: time 16-18 hrs
[11] = test system: Staphylococcus aureus; assay: Antibacterial activity against methicillin-resistant Staphylococcus aureus clinical isolate M-9 incubated for 16 to 18 hrs CLSI based by microbroth dilution assay; assay type: functional; conditions: time 16-18 hrs
[12] = test system: Staphylococcus aureus; assay: Antibacterial activity against methicillin-resistant Staphylococcus aureus clinical isolate M-10 incubated for 16 to 18 hrs CLSI based by microbroth dilution assay; assay type: functional; conditions: time 16-18 hrs
[13] = test system: Staphylococcus aureus; assay: Bactericidal activity against Staphylococcus aureus ATCC 29213 assessed as increase in fluorescence intensity at MIC incubated for 180 mins; assay type: functional, organism-based
[14] = Hemolytic activity in sheep erythrocytes incubated for 1 hr by absorbance based assay; assay type: toxicity, cell-based, Ovis aries, Erythrocyte
[15] = Selectivity index, ratio of HC50 for sheep erythrocytes to MIC for Staphylococcus aureus ATCC 29213; assay type: toxicity; conditions: read-out: Selectivity Index
[16] = test system: Staphylococcus aureus; assay: Bactericidal activity against Staphylococcus aureus ATCC 29213 assessed as fluorescent signal at MIC incubated for 20 mins; assay type: functional, organism-based
[17] = test system: Staphylococcus aureus; assay: Bactericidal activity against Staphylococcus aureus ATCC 29213 at 8 times MIC incubated upto 8 hrs by time kill assay; assay type: functional, organism-based
[18] = test system: Staphylococcus aureus; assay: Bactericidal activity against methicillin-resistant Staphylococcus aureus clinical isolate M-4 at 8 times MIC incubated upto 8 hrs by time kill assay; assay type: functional, organism-based
[19] = test system: Staphylococcus aureus; assay: Antibacterial activity against methicillin-resistant Staphylococcus aureus clinical isolate M-4 infected in KM mouse assessed as survival rate of bacteria at 5 mg/kg, sc measured after 24 hrs relative to control; assay type: functional
[20] = Toxicity in KM mouse infected with methicillin-resistant Staphylococcus aureus clinical isolate M-4 assessed as histopathological abnormality in heart at 5 mg/kg, sc measured after 24 hrs by H and E staining based analysis; assay type: organism-based; conditions: in vivo
[21] = Toxicity in KM mouse infected with methicillin-resistant Staphylococcus aureus clinical isolate M-4 assessed as histopathological abnormality in liver at 5 mg/kg, sc measured after 24 hrs by H and E staining based analysis; assay type: organism-based; conditions: in vivo
[22] = Toxicity in KM mouse infected with methicillin-resistant Staphylococcus aureus clinical isolate M-4 assessed as histopathological abnormality in spleen at 5 mg/kg, sc measured after 24 hrs by H and E staining based analysis; assay type: organism-based; conditions: in vivo
[23] = Toxicity in KM mouse infected with methicillin-resistant Staphylococcus aureus clinical isolate M-4 assessed as histopathological abnormality in lungs at 5 mg/kg, sc measured after 24 hrs by H and E staining based analysis; assay type: organism-based; conditions: in vivo
[24] = Toxicity in KM mouse infected with methicillin-resistant Staphylococcus aureus clinical isolate M-4 assessed as histopathological abnormality in kidneys at 5 mg/kg, sc measured after 24 hrs by H and E staining based analysis; assay type: organism-based; conditions: in vivo

Row | SMILES | MIC [1] [µg/mL] | MIC [2] [µg/mL] | MIC [3] [µg/mL] | MIC [4] [µg/mL] | MIC [5] [µg/mL] | MIC [6] [µg/mL] | MIC [7] [µg/mL] | MIC [8] [µg/mL] | MIC [9] [µg/mL] | MIC [10] [µg/mL] | MIC [11] [µg/mL] | MIC [12] [µg/mL] | HC50 at 1 h [14] [µg/mL] | selectivity ratio [15] | further results
1 | CN(C)c1ccc(-c2nc3c4ccccc4c4ccccc4c3n2CCCCBr)cc1 | > 64 | > 64 | > 64 | > 64 | > 64 | > 64 | > 64 | > 64 | > 64 | > 64 | > 64 | > 64 | – | – | Activity [13]: inactive
2 | CCCCCNC(=O)C[N+](C)(C)CCCn1c(-c2ccc(N(C)C)cc2)nc2c3ccccc3c3ccccc3c21.[Br-] | 8 | 64 | 8 | 8 | 8 | 4 | 8 | 8 | 4 | 8 | 4 | 8 | > 640 | > 80 | Activity [16]: Active
3 | CCCCCCNC(=O)C[N+](C)(C)CCCn1c(-c2ccc(N(C)C)cc2)nc2c3ccccc3c3ccccc3c21.[Br-] | 64 | > 128 | 64 | 128 | 64 | 64 | 64 | 128 | 64 | 128 | 64 | 64 | > 640 | > 10 | –
4 | CCCCCNC(=O)C[N+](C)(C)CCCCCn1c(-c2ccc(N(C)C)cc2)nc2c3ccccc3c3ccccc3c21.[Br-] | 2 | 64 | 4 | 2 | 2 | 2 | 2 | 2 | 2 | 2 | 2 | 4 | 572 | 286 | –
5 | CCCN(CCC)C(=O)C[N+](C)(C)CCCCn1c(-c2ccc(N(C)C)cc2)nc2c3ccccc3c3ccccc3c21.[Br-] | 4 | 128 | 4 | 4 | 4 | 4 | 4 | 4 | 4 | 4 | 4 | 4 | 213 | 53.3 | –
6 | CN[C@H](CC(C)C)C(=O)N[C@H]1C(=O)N[C@@H](CC(N)=O)C(=O)N[C@H]2C(=O)N[C@H]3C(=O)N[C@H](C(=O)N[C@H](C(=O)O)c4cc(O)cc(O)c4-c4cc3ccc4O)[C@H](O)c3ccc(c(Cl)c3)Oc3cc2cc(c3O[C@@H]2O[C@H](CO)[C@@H](O)[C@H](O)[C@H]2O[C@H]2C[C@](C)(N)[C@H](O)[C@H](C)O2)Oc2ccc(cc2Cl)[C@H]1O [VANCOMYCIN] | – | – | – | – | – | – | – | – | – | – | – | – | – | – | Activity [17]: Active; Activity [18]: Active; survival at 5 mg/kg [19]: 2.15%; Activity [20]: Non-Toxic; Activity [21]: Non-Toxic; Activity [22]: Non-Toxic; Activity [23]: Non-Toxic; Activity [24]: Non-Toxic
7 | CCCCN(CCCC)C(=O)C[N+](C)(C)CCCCn1c(-c2ccc(N(C)C)cc2)nc2c3ccccc3c3ccccc3c21.[Br-] | 1 | 64 | 2 | 1 | 0.5 | 1 | 2 | 0.5 | 0.5 | 1 | 1 | 1 | 79.5 | 79.5 | –
8 | CCCCN(CCCC)C(=O)C[N+](C)(C)CCCCCn1c(-c2ccc(N(C)C)cc2)nc2c3ccccc3c3ccccc3c21.[Br-] | 1 | > 128 | 4 | 1 | 1 | 1 | 2 | 1 | 1 | 1 | 1 | 4 | 225 | 225 | –
9 | CCN(CC)C(=O)C[N+](C)(C)CCCCCn1c(-c2ccc(N(C)C)cc2)nc2c3ccccc3c3ccccc3c21.[Br-] | 16 | 128 | 8 | 8 | 8 | 8 | 8 | 8 | 8 | 8 | 8 | 8 | 1080 | 67.8 | –
